Like-named read-outs stand apart in the source and are kept apart here.
Legend:
human Nav1.7 = human Nav1.7 (Homo sapiens (Human), UniProt Q15858); experiment: FLIPR or FLIPR TETRA sodium dye assay with KCl and test article pre-incubation; type: cell-based
hNav1.7 = hNav1.7 (Homo sapiens (Human), UniProt Q15858); experiment: Electrophysiology (EP) assay, whole-cell patch clamp; type: cell-based; conditions: hNav1.7 HEK-293 cells; for Kd: Kf (method describes resting block dissociation constant Kr), read-out: EP Nav 1.7 Kf (μM) ± SEM; for Ki: affinity for inactivated state, read-out: EP Nav 1.7 Ki (μM) ± SEM
Experimental: Cells: The hNav1.7 expressing HEK-293 cells were plated on 35 mm culture dishes pre-coated with poly-D-lysine in standard DMEM culture media (Mediatech, Inc., Herndon, Va.) and incubated in a 5% CO2 incubator at 37° C. Cultured cells were used approximately 12-48 hours after plating.
Electrophysiology: On the day of experimentation, the 35 mm dish was placed on the stage of an inverted microscope equipped with a perfusion system that continuously perfuses the culture dish with fresh recording media. A gravity driven superfusion system was used to apply test solutions directly to the cell under evaluation. This system consists of an array of glass pipette glass connected to a motorized horizontal translator. The outlet of the shooter was positioned approximately 100 μm from the cell of interest.
Whole cell currents were recorded using the whole-cell patch clamp configuration using an Axopatch 200B amplifier (Axon Instruments, Foster City Calif.), 1322A A/D converter (Axon Instruments) and pClamp software (v. 8; Axon Instruments) and stored on a personal computer. Gigaseals were formed and the whole-cell configuration was established in voltage clamp mode, and membrane currents generated by hNav1.7 were recorded in gap-free mode. Borosilicate glass pipettes have resistance values between 1.5 and 2.0 MΩ when filled with pipette solution and series resistance (<5 MΩ) was compensated 75-80%. Signals were sampled at 50 kHz and low pass filtered at 3 kHz.
Voltage Protocols: After establishing the whole-cell configuration in voltage clamp mode, voltage protocols were run to establish the 1) test potential, 2) holding potential, and 3) the conditioning potential for each cell.
After establishing the whole-cell configuration in voltage clamp mode, a standard I-V protocol was run to determine the potential at which the maximal current (Imax) is elicited. This potential was the test potential (Vt). To determine a conditioning potential at which 100% of channels were in the inactivated state, a standard steady-state inactivation (SSIN) protocol was run using a series of fifteen 100 ms-long depolarizing prepulses, incrementing in 10 mV steps, immediately followed by a 5 ms testing pulse, Vt, to Vmax. This protocol also permitted determination of the holding potential at which all channels are in the resting state.
For compounds causing significant retardation of recovery from inactivation, an estimate of the affinity for the inactivated state of the channel (Ki) was generated using the following protocol. From the negative, no residual inactivation, holding potential, the cell was depolarized to the conditioning voltage for 2-5 seconds, returned to the negative holding potential for 10-20 ms to relieve fast inactivation and then depolarized to the test potential for ˜15 ms. This voltage protocol was repeated every 10-15 seconds, first to establish a baseline in the absence of the test compound, then in the presence of the test compound.
After a stable baseline was established, the test compound was applied and block of the current elicited by the test pulse assessed. In some cases, multiple cumulative concentrations were applied to identify a concentration that blocked between 40-60% of this current. Washout of the compound was attempted by superfusing with control solution once steady-state block was observed. An estimate of the Ki was calculated as follows: Ki=[drug]*{FR/(1−FR)}, Eq. 1 where [drug] is the concentration of a drug, and FR=I(after drug)/l(control), Eq. 2 where I is the peak current amplitude. If multiple concentrations were used, Ki was determined from the fit of a logistic equation to FRs plotted against corresponding drug concentrations.
In the alternative, the voltage clamp protocol to examine hNav1.7 currents was as follows. […]

[1] = recombinant HEK293 cells expressing human Nav1.7, CoroNa Green sodium dye, veratridine + scorpion venom, read-out: FLIPR Nav 1.7 IC50 (μM) ± SEM
[2] = read-out: FLIPR Nav 1.7 IC50 (μM) ± SEM

Chain of human Nav1.7 (Q15858 other isoform, or with tags, fused parts or gaps): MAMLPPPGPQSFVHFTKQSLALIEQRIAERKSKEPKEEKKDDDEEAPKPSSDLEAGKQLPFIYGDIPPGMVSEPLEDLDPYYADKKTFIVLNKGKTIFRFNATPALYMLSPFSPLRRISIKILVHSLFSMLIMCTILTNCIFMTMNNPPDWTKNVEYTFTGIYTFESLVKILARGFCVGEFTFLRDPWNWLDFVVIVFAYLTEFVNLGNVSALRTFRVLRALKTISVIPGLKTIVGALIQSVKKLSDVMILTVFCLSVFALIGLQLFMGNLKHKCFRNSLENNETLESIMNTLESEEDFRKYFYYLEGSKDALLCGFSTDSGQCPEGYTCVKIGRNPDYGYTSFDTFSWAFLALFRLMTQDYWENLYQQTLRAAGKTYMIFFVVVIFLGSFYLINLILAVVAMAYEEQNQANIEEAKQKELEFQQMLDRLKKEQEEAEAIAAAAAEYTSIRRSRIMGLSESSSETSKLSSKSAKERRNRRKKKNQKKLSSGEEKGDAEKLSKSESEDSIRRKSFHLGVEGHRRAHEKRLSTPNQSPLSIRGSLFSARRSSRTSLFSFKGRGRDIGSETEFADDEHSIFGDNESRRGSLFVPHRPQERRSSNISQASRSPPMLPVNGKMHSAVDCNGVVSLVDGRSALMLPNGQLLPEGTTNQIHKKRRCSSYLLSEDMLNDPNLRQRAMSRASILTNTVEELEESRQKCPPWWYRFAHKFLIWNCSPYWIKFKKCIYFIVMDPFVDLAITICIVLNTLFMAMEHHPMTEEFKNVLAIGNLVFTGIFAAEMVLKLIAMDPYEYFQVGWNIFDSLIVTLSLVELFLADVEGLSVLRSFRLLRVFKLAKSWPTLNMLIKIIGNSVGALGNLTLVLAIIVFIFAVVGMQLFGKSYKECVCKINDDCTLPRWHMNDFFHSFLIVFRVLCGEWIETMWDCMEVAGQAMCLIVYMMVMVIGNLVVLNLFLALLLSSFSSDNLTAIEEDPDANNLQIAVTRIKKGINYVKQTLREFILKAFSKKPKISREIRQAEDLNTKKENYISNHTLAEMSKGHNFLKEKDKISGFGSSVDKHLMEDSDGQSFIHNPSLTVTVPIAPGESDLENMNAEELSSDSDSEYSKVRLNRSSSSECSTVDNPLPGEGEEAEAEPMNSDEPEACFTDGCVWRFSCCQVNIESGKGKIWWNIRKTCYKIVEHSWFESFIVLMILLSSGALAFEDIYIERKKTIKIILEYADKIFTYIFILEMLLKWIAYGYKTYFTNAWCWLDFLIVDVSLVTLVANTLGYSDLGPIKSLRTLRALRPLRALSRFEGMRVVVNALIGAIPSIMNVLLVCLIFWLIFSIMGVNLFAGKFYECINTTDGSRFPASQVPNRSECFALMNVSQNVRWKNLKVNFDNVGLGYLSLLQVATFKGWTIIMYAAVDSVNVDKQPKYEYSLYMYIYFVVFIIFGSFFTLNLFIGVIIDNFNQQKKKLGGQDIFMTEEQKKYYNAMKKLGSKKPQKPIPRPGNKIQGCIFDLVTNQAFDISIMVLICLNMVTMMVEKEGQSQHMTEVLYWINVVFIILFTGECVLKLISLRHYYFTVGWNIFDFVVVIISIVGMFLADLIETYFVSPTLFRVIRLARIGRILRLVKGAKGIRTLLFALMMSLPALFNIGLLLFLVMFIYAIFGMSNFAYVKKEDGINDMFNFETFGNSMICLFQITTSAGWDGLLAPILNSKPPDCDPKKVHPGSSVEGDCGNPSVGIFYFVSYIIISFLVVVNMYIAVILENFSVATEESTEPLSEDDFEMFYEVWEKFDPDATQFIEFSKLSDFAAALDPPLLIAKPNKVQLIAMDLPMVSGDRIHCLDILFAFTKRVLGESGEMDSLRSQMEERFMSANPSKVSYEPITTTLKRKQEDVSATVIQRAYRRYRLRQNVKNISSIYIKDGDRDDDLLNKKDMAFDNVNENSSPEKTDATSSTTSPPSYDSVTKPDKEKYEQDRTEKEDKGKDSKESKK
Chain of hNav1.7 (Q15858 other isoform, or with tags, fused parts or gaps): as above

Compound | IC50 (human Nav1.7; [1]) [µM] | IC50 (human Nav1.7; [2]) [µM] | other results
NC(=O)[C@@H](O)[C@H](O)c1cccc(-c2ccc(Oc3ccc(Cl)nc3)cc2)n1 | 0.376 ± 0.057 | – | –
NC(=O)[C@H](O)[C@@H](O)c1cccc(-c2ccc(Oc3ccc(Cl)cn3)cc2)n1 | – | 1.44 ± 0.078 | –
N#Cc1ccc(Oc2ccc(-c3cccc([C@@H](O)[C@H](O)C(N)=O)n3)cc2)cc1C(F)(F)F | 0.461 ± 0.045 | – | –
NC(=O)[C@@H](O)[C@H](O)c1cccc(-c2ccc(Oc3ccc(C(F)(F)F)cn3)cc2)n1 | 0.711 ± 0.05 | – | –
NC(=O)[C@@H](O)[C@H](O)c1cccc(-c2ccc(Oc3ccc(C(F)(F)F)cc3)cc2)n1 | 0.13 ± 0.025 | – | –
NC(=O)[C@@H](O)[C@H](O)c1cccc(-c2ccc(Oc3ccc(Cl)cn3)cc2)n1 | – | 1.19 ± 0.074 | –
N#Cc1ccc(Oc2ccc(-c3cccc([C@H](O)[C@@H](O)C(N)=O)n3)cc2)cc1 | 0.69 ± 0.071 | – | –
N#Cc1cc(Oc2ccc(-c3cccc([C@@H](O)[C@H](O)C(N)=O)n3)cc2)ccc1C(F)(F)F [Compound 15, (2S,3R)-3-(6-(4-(3-Cyano-4-(trifluoromethyl)phenoxy)phenyl)pyridin-2-yl)-2,3-dihydroxypropanamide] | – | 0.304 ± 0.022 | Kd (hNav1.7): 32.9 ± 6.89 µM; Ki (hNav1.7): 0.917 ± 0.05 µM
N#Cc1ccc(Oc2ccc(-c3cccc([C@H](O)[C@@H](O)C(N)=O)n3)cc2)cc1C(F)(F)F | 0.489 ± 0.04 | – | –
NC(=O)[C@H](O)[C@@H](O)c1cccc(-c2ccc(Oc3ccc(C(F)(F)F)cn3)cc2)n1 | 1.69 ± 0.019 | – | –
NC(=O)[C@H](O)[C@@H](O)c1cn(-c2ccc(Oc3ccc(C(F)(F)F)cn3)cc2)c2ccccc12 [Compound 5, (2R,3S)-2,3-Dihydroxy-3-(1-(4-((5-(trifluoromethyl)pyridin-2-yl)oxy)phenyl)-1H-indol-3-yl)propanamide] | – | 0.314 ± 0.038 | –
N#Cc1cc(Oc2ccc(-c3cccc([C@H](O)[C@@H](O)C(N)=O)n3)cc2)ccc1C(F)(F)F [Compound 19, (2R,3S)-3-(6-(4-(3-Cyano-4-(trifluoromethyl)phenoxy)phenyl)pyridin-2-yl)-2,3-dihydroxypropanamide] | – | 0.244 ± 0.05 | Kd (hNav1.7): 17.1 ± 4.24 µM; Ki (hNav1.7): 0.347 ± 0.07 µM
CNC(=O)[C@@H](O)[C@H](O)c1cn(-c2ccc(Oc3ccc(C(F)(F)F)cn3)cc2)c2ccccc12 [Compound 7, (2S,3R)-2,3-Dihydroxy-N-methyl-3-(1-(4-((5-(trifluoromethyl)pyridin-2-yl)oxy)phenyl)-1H-indol-3-yl)propanamide] | 0.282 ± 0.002 | – | –
NC(=O)[C@H](O)[C@@H](O)c1cccc(-c2ccc(Oc3ccc(Cl)nc3)cc2)n1 | 0.804 ± 0.044 | – | –
NC(=O)[C@@H](O)[C@H](O)c1cccc(-c2ccc(Oc3ccc(F)cc3)cc2)n1 | – | 1.41 ± 0.281 | –
CCOC(=O)[C@@H](O)[C@H](O)c1cn(-c2ccc(Oc3ccc(C(F)(F)F)cn3)cc2)c2ccccc12 [Compound 6, (2S,3R)-Ethyl 2,3-dihydroxy-3-(1-(4-((5-(trifluoromethyl)pyridin-2-yl)oxy)phenyl)-1H-indol-3-yl)propanoate] | 0.152 ± 0.031 | – | –
NC(=O)[C@H](O)[C@@H](O)c1cccc(-c2ccc(Oc3ccc(F)cc3)cc2)n1 | – | 1.84 ± 0.309 | –
CCOC(=O)[C@@H](O)[C@H](O)c1cccc(-c2ccc(Oc3ccc(C(F)(F)F)c(C#N)c3)cc2)n1 [Compound 14, (2S,3R)-Ethyl 3-(6-(4-(3-cyano-4-(trifluoromethyl)phenoxy)phenyl)pyridin-2-yl)-2,3-dihydroxypropanoate] | – | – | IC50 (human Nav1.7): 0.246 ± 0.031 µM
NC(=O)[C@@H](O)[C@H](O)c1cn(-c2ccc(Oc3ccc(C(F)(F)F)cn3)cc2)c2ccccc12 [Compound 8, (2S,3R)-2,3-Dihydroxy-3-(1-(4-((5-(trifluoromethyl)pyridin-2-yl)oxy)phenyl)-1H-indol-3-yl)propanamide] | – | 0.193 ± 0.049 | –
N#Cc1ccc(Oc2ccc(-c3cccc([C@@H](O)[C@H](O)C(N)=O)n3)cc2)cc1 | 0.262 ± 0.017 | – | –
NC(=O)[C@H](O)[C@@H](O)c1cccc(-c2ccc(Oc3ccc(C(F)(F)F)cc3)cc2)n1 | 0.383 ± 0.072 | – | –
NC(=O)[C@H](O)[C@@H](O)c1ccnc(-c2ccc(Oc3ccc(F)cc3)cc2)n1 [Compound 26, (2R,3S)-3-(2-(4-(4-fluorophenoxy)phenyl)pyrimidin-4-yl)-2,3-dihydroxypropanamide] | 0.625 ± 0.058 | – | Kd (hNav1.7): 97.9 ± 23.1 µM; Ki (hNav1.7): 2.26 ± 0.61 µM

— patent publication US9181185B2, “Heteroaryl compounds as sodium channel blockers” (Purdue Pharma L.P., priority 2011, dated 2015)
